Experimental findings from ChEMBL document CHEMBL1135136, “Carbonic anhydrase inhibitors. Preparation of potent sulfonamides inhibitors incorporating bile acid tails” (Bioorg Med Chem Lett, 2002) are described below.

In one assay the target is Carbonic anhydrase 2 (Homo sapiens, UniProt P00918).
For the next assay, the target named is T1, Carbonic anhydrase 4 (Bos taurus, UniProt Q95323).
T1 sequence (Q95323 whole entry): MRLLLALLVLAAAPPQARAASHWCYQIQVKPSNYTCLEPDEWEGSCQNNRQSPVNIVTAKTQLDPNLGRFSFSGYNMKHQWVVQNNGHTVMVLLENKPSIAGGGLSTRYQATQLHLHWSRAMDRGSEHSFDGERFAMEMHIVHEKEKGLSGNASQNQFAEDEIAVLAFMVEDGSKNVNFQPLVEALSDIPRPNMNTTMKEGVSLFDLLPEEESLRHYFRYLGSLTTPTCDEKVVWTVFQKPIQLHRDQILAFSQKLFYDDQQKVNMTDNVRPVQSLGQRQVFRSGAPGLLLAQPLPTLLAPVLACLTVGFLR

A further assay has as its target Carbonic anhydrase 1 (Homo sapiens, UniProt P00915).

Sequence of Carbonic anhydrase 1 (P00915 whole entry): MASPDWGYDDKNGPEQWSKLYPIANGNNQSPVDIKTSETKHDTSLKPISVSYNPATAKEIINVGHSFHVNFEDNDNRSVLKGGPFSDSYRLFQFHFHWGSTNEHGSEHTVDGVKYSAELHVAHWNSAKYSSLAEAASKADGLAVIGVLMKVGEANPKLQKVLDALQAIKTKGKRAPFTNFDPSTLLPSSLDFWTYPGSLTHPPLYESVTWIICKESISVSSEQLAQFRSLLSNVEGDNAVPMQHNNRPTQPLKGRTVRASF
Description for Carbonic anhydrase 1: Inhibitory activity against human recombinant carbonic anhydrase I (CA1)
Description for Carbonic anhydrase 2: Inhibitory activity against human recombinant carbonic anhydrase II (CA2)
Description for Carbonic anhydrase 4: Inhibitory activity against bovine carbonic anhydrase IV (CA4), obtained from bovine lung microsomes

Broadly, the Ki is a dissociation constant, usually derived from enzyme kinetics or from competition with a known ligand. A high value points to a looser hold on the target. For `C[C@H](CCC(=O)Nc1ccc(S(N)(=O)=O)cc1I)[C@H]1CC[C@H]2[C@@H]3CC[C@@H]4C[C@H](O)CC[C@]4(C)[C@H]3CC[C@]12C`, the figures for the Ki at Carbonic anhydrase 2, on Carbonic anhydrase 4 and at Carbonic anhydrase 1 were 32 nM, 69 nM and 120 nM, respectively.
On the same counts, the results for `C[C@H](CCC(=O)Nc1ccc(S(N)(=O)=O)cc1I)[C@H]1CC[C@H]2[C@@H]3[C@H](O)C[C@@H]4C[C@H](O)CC[C@]4(C)[C@H]3CC[C@]12C` are 55 nM, 110 nM and 521 nM.
Take `C[C@H](CCC(=O)/N=c1\sc(S(N)(=O)=O)nn1C)[C@H]1CC[C@H]2[C@@H]3[C@H](O)C[C@@H]4C[C@H](O)CC[C@]4(C)[C@H]3CC[C@]12C`: the Ki on Carbonic anhydrase 2 was 13 nM; at Carbonic anhydrase 4, 100 nM; on Carbonic anhydrase 1, 514 nM.
For `C[C@H](CCC(=O)NCCC(=O)Nc1nnc(S(N)(=O)=O)s1)[C@H]1CC[C@H]2[C@@H]3C(=O)C[C@@H]4CC(=O)CC[C@]4(C)[C@H]3CC(=O)[C@]12C`, the Ki came to 1.1 nM at Carbonic anhydrase 2, 7 nM at Carbonic anhydrase 4 and 22 nM on Carbonic anhydrase 1.
For the molecule `C[C@H](CCC(=O)Nc1ccc(S(N)(=O)=O)cc1)[C@H]1CC[C@H]2[C@@H]3CC[C@@H]4C[C@H](O)CC[C@]4(C)[C@H]3C[C@H](O)[C@]12C`, the Ki at Carbonic anhydrase 2 is 210 nM; on Carbonic anhydrase 4 it was 355 nM; on Carbonic anhydrase 1 it was 12000 nM.
Regarding `C[C@H](CCC(=O)Nc1ccc(S(N)(=O)=O)cc1Cl)[C@H]1CC[C@H]2[C@@H]3[C@H](O)C[C@@H]4C[C@H](O)CC[C@]4(C)[C@H]3CC[C@]12C`, the Ki on Carbonic anhydrase 2 was found to be 80 nM; at Carbonic anhydrase 4, 150 nM; on Carbonic anhydrase 1 it was 950 nM.
Take `C[C@H](CCC(=O)Nc1cccc(S(N)(=O)=O)c1)[C@H]1CC[C@H]2[C@@H]3[C@H](O)C[C@@H]4C[C@H](O)CC[C@]4(C)[C@H]3CC[C@]12C`: the Ki was 210 nM on Carbonic anhydrase 2, 1250 nM on Carbonic anhydrase 4 and 21400 nM on Carbonic anhydrase 1.
On the same counts, the results for `C[C@H](CCC(=O)Nc1ccc(S(N)(=O)=O)cc1Br)[C@H]1CC[C@H]2[C@@H]3C(=O)C[C@@H]4CC(=O)CC[C@]4(C)[C@H]3CC(=O)[C@]12C` are 9 nM, 28 nM and 66 nM.
As for `C[C@H](CCC(=O)Nc1c(S(N)(=O)=O)cc(S(N)(=O)=O)c(Cl)c1Cl)[C@H]1CC[C@H]2[C@@H]3CC[C@@H]4C[C@H](O)CC[C@]4(C)[C@H]3C[C@H](O)[C@]12C`, the Ki was determined as 20 nM at Carbonic anhydrase 2, 100 nM at Carbonic anhydrase 4 and 285 nM on Carbonic anhydrase 1.
`C[C@H](CCC(=O)OCCc1ccc(S(N)(=O)=O)cc1)[C@H]1CC[C@H]2[C@@H]3[C@H](O)C[C@@H]4C[C@H](O)CC[C@]4(C)[C@H]3C[C@H](O)[C@]12C`: the Ki is 80 nM at Carbonic anhydrase 2, 300 nM at Carbonic anhydrase 4 and 1150 nM at Carbonic anhydrase 1.
Regarding `C[C@H](CCC(=O)/N=c1/sc(S(N)(=O)=O)nn1C)[C@H]1CC[C@H]2[C@@H]3[C@H](O)C[C@@H]4C[C@H](O)CC[C@]4(C)[C@H]3C[C@H](O)[C@]12C`, the figures for the Ki on Carbonic anhydrase 2, on Carbonic anhydrase 4 and on Carbonic anhydrase 1 were 12 nM, 115 nM and 700 nM, respectively.
Consider `C[C@H](CCC(=O)Nc1ccc(S(N)(=O)=O)cc1)[C@H]1CC[C@H]2[C@@H]3CC[C@@H]4C[C@H](O)CC[C@]4(C)[C@H]3CC[C@]12C`, for which the Ki was 106 nM on Carbonic anhydrase 2, 280 nM at Carbonic anhydrase 4 and 6300 nM on Carbonic anhydrase 1.
In the case of `C[C@H](CCC(=O)OCCOc1ccc2nc(S(N)(=O)=O)sc2c1)[C@H]1CC[C@H]2[C@@H]3[C@H](O)C[C@@H]4C[C@H](O)CC[C@]4(C)[C@H]3C[C@H](O)[C@]12C`, the figures for the Ki at Carbonic anhydrase 2, at Carbonic anhydrase 4 and at Carbonic anhydrase 1 were 3 nM, 10 nM and 39 nM, respectively.
In the case of `C[C@H](CCC(=O)Nc1ccc(S(N)(=O)=O)cc1)[C@H]1CC[C@H]2[C@@H]3[C@H](O)C[C@@H]4C[C@H](O)CC[C@]4(C)[C@H]3CC[C@]12C`, the Ki was determined as 186 nM at Carbonic anhydrase 2, 420 nM on Carbonic anhydrase 4 and 20000 nM on Carbonic anhydrase 1.
On the same counts, the results for `C[C@H](CCC(=O)OCCOc1ccc2nc(S(N)(=O)=O)sc2c1)[C@H]1CC[C@H]2[C@@H]3[C@@H](O)C[C@@H]4C[C@H](O)CC[C@]4(C)[C@H]3CC[C@]12C` are 0.6 nM, 5 nM and 30 nM.
For `C[C@H](CCC(=O)Nc1ccc(S(N)(=O)=O)cc1I)[C@H]1CC[C@H]2[C@@H]3[C@@H](O)C[C@@H]4C[C@H](O)CC[C@]4(C)[C@H]3CC[C@]12C`, the Ki was found to be 13 nM on Carbonic anhydrase 2, 20 nM at Carbonic anhydrase 4 and 67 nM on Carbonic anhydrase 1.
`C[C@H](CCC(=O)NCc1ccc(S(N)(=O)=O)cc1)[C@H]1CC[C@H]2[C@@H]3CC[C@@H]4C[C@H](O)CC[C@]4(C)[C@H]3CC[C@]12C`: the Ki on Carbonic anhydrase 2 is 48 nM; at Carbonic anhydrase 4 it was 83 nM; on Carbonic anhydrase 1, 910 nM.
As for `C[C@H](CCC(=O)Nc1c(S(N)(=O)=O)cc(S(N)(=O)=O)c(Cl)c1Cl)[C@H]1CC[C@H]2[C@@H]3[C@H](O)C[C@@H]4C[C@H](O)CC[C@]4(C)[C@H]3CC[C@]12C`, the Ki at Carbonic anhydrase 2 came out at 21 nM; at Carbonic anhydrase 4, 95 nM; at Carbonic anhydrase 1, 343 nM.
With `C[C@H](CCC(=O)Nc1cc(Cl)c(S(N)(=O)=O)cc1S(N)(=O)=O)[C@H]1CC[C@H]2[C@@H]3[C@@H](O)C[C@@H]4C[C@H](O)CC[C@]4(C)[C@H]3CC[C@]12C`, the Ki on Carbonic anhydrase 2 turned out to be 9 nM; at Carbonic anhydrase 4, 46 nM; at Carbonic anhydrase 1, 71 nM.
For `C[C@H](CCC(=O)OCCOc1ccc2nc(S(N)(=O)=O)sc2c1)[C@H]1CC[C@H]2[C@@H]3C(=O)C[C@@H]4CC(=O)CC[C@]4(C)[C@H]3CC(=O)[C@]12C` the same measures were 0.8 nM, 6 nM and 30 nM.
On to `C[C@H](CCC(=O)Nc1ccccc1S(N)(=O)=O)[C@H]1CC[C@H]2[C@@H]3CC[C@@H]4C[C@H](O)CC[C@]4(C)[C@H]3C[C@H](O)[C@]12C`, for which the Ki on Carbonic anhydrase 2 came to 280 nM; on Carbonic anhydrase 4, 975 nM; on Carbonic anhydrase 1, 20100 nM.
On to `C[C@H](CCC(=O)Nc1ccccc1S(N)(=O)=O)[C@H]1CC[C@H]2[C@@H]3CC[C@@H]4C[C@H](O)CC[C@]4(C)[C@H]3CC[C@]12C`, for which the figures for the Ki at Carbonic anhydrase 2, at Carbonic anhydrase 4 and at Carbonic anhydrase 1 were 270 nM, 750 nM and 9200 nM, respectively.
With `C[C@H](CCC(=O)OCCOc1ccc2nc(S(N)(=O)=O)sc2c1)[C@H]1CC[C@H]2[C@@H]3CC[C@@H]4C[C@H](O)CC[C@]4(C)[C@H]3C[C@H](O)[C@]12C`, the results for the Ki at Carbonic anhydrase 2, on Carbonic anhydrase 4 and on Carbonic anhydrase 1 were 4.1 nM, 8 nM and 37 nM, respectively.
Regarding `C[C@H](CCC(=O)NCc1ccc(S(N)(=O)=O)cc1)[C@H]1CC[C@H]2[C@@H]3CC[C@@H]4C[C@H](O)CC[C@]4(C)[C@H]3C[C@H](O)[C@]12C`, the Ki is 80 nM on Carbonic anhydrase 2, 233 nM on Carbonic anhydrase 4 and 1710 nM at Carbonic anhydrase 1.
On the same counts, the results for `C[C@H](CCC(=O)Nc1ccc(S(N)(=O)=O)cc1I)[C@H]1CC[C@H]2[C@@H]3CC[C@@H]4C[C@H](O)CC[C@]4(C)[C@H]3C[C@H](O)[C@]12C` are 47 nM, 110 nM and 415 nM.
On to `C[C@H](CCC(=O)NNc1ccc(S(N)(=O)=O)cc1)[C@H]1CC[C@H]2[C@@H]3[C@@H](O)C[C@@H]4C[C@H](O)CC[C@]4(C)[C@H]3CC[C@]12C`, for which the figures for the Ki on Carbonic anhydrase 2, at Carbonic anhydrase 4 and on Carbonic anhydrase 1 were 240 nM, 615 nM and 12000 nM, respectively.
With `C[C@H](CCC(=O)Nc1ccc2nc(S(N)(=O)=O)sc2c1)[C@H]1CC[C@H]2[C@@H]3[C@H](O)C[C@@H]4C[C@H](O)CC[C@]4(C)[C@H]3C[C@H](O)[C@]12C`, the Ki at Carbonic anhydrase 2 worked out at 5 nM; on Carbonic anhydrase 4, 10 nM; on Carbonic anhydrase 1, 35 nM.
Take `C[C@H](CCC(=O)OCCc1ccc(S(N)(=O)=O)cc1)[C@H]1CC[C@H]2[C@@H]3C(=O)C[C@@H]4CC(=O)CC[C@]4(C)[C@H]3CC(=O)[C@]12C`: the Ki on Carbonic anhydrase 2 came out at 50 nM; at Carbonic anhydrase 4, 123 nM; on Carbonic anhydrase 1 it was 415 nM.
As to `C[C@H](CCC(=O)Nc1ccc(S(N)(=O)=O)cc1Cl)[C@H]1CC[C@H]2[C@@H]3CC[C@@H]4C[C@H](O)CC[C@]4(C)[C@H]3C[C@H](O)[C@]12C`, the results for the Ki at Carbonic anhydrase 2, on Carbonic anhydrase 4 and on Carbonic anhydrase 1 were 77 nM, 151 nM and 890 nM, respectively.
For `C[C@H](CCC(=O)Nc1ccccc1S(N)(=O)=O)[C@H]1CC[C@H]2[C@@H]3[C@@H](O)C[C@@H]4C[C@H](O)CC[C@]4(C)[C@H]3CC[C@]12C`, the Ki amounted to 180 nM at Carbonic anhydrase 2, 500 nM on Carbonic anhydrase 4 and 8400 nM on Carbonic anhydrase 1.
For `C[C@H](CCC(=O)OCc1ccc(S(N)(=O)=O)cc1)[C@H]1CC[C@H]2[C@@H]3[C@H](O)C[C@@H]4C[C@H](O)CC[C@]4(C)[C@H]3C[C@H](O)[C@]12C` the same measures were 97 nM, 280 nM and 1200 nM.
Take `C[C@H](CCC(=O)Nc1ccc(S(N)(=O)=O)cc1Br)[C@H]1CC[C@H]2[C@@H]3[C@H](O)C[C@@H]4C[C@H](O)CC[C@]4(C)[C@H]3C[C@H](O)[C@]12C`: the results for the Ki on Carbonic anhydrase 2, on Carbonic anhydrase 4 and at Carbonic anhydrase 1 were 35 nM, 60 nM and 600 nM, respectively.
